{"source": "paper PMC10485906", "about": "“Development of a Dihydroquinoline–Pyrazoline GluN2C/2D-Selective Negative Allosteric Modulator of the N-Methyl-D-aspartate Receptor” (ACS Chemical Neuroscience, 2023)", "biological_target": "T1, GluK2 (Rattus norvegicus, UniProt P42260)", "T1 construct": "expressed in transfected cells; host or cells: Xenopus oocytes (cRNA injection)", "T1 sequence (P42260 32-908)": "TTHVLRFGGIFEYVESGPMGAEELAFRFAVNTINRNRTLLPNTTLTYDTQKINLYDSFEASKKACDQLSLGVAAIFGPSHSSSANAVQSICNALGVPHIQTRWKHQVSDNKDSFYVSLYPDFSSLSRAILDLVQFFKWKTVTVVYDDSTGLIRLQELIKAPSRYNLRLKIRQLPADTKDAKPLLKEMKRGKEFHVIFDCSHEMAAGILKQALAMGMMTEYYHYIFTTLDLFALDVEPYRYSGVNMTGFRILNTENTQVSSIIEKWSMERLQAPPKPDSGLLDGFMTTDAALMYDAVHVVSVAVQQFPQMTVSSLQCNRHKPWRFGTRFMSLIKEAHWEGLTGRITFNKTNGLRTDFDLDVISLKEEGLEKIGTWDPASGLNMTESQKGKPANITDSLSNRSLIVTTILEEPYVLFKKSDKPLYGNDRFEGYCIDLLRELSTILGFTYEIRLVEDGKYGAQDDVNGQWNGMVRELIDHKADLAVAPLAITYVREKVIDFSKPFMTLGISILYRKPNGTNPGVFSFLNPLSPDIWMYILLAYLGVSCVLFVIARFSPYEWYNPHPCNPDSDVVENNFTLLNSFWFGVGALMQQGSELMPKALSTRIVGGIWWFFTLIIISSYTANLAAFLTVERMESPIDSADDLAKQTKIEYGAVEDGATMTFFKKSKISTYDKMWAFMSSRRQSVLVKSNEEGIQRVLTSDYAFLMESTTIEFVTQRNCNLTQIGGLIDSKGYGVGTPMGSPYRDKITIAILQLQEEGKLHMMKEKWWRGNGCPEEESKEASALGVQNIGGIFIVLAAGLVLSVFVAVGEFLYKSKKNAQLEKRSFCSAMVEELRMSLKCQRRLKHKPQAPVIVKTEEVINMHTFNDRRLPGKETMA", "assay": "Off-target, oocytes, GluK2", "type": "cell-based", "details": "1 µM compound; 100 µM glutamate", "procedure": "Analysis of Off-target Actions\nCompound (S)-(-)-2i was tested at 1 µM for actions at glycine-activated GluN1/GluN3A (human GluN1-F484A,T518L/GluN3A referred to a GluN1-FA,TL/GluN3A) and rat GluN1-4a/GluN3B in the presence of 0.5 µM CGP-78608. cRNA injection ratios for GluN1/GluN3 were 1:2. Compound (S)-(-)- 2i was also tested for actions at AMPA (rat GluA1, rat GluA2, human GluA3-L531Y), kainate (rat GluK2), nicotinic acetylcholine (rat α7 and α4β2, cRNA ratio 1:1), GABAA (rat α1β2γ2S, cRNA ratio 1:1:1), GABAC (rat ρ1), glycine (rat α1), and purinergic (human P2X) receptors expressed in Xenopus oocytes. cRNA encoding the receptor subunits was synthesized from linear template cDNA using the mMessage mMachine kit (Ambion). Oocytes were injected with 1-5 ng cRNA in a 50 nL volume and incubated in Barth's solution at 15°C for 2-5 days prior to recording. GluK2-expressing oocyte were incubated in 1 mg/ml (10 µM) concanavalin-A for 10 min prior to recording. The cDNAs encoding GABAC and glycine subunits were provided by Dr. D. Weiss (University of Texas Health Science Center at San Antonio). cDNAs encoding nicotinic acetylcholine receptor subunits were provided by Drs. […]\nGABA. […] Responses in presence of test compound were expressed as a percent of control. […]"}
{"smiles": "O=C(O)CC(F)(F)C(=O)N1N=C(c2c(-c3ccc(Cl)cc3)c3ccccc3[nH]c2=O)C[C@H]1c1ccc(Cl)cc1", "note": "[(S)-(−)-2i]", "values": [{"measurement": "% control GluK2", "result": "100 ± 1.0", "unit": "%"}]}
